From patent US11337971B2, “Dopamine D3 receptor selective antagonists/partial agonists and uses thereof” (THE UNITED STATES OF AMERICA, AS REPRESENTED BY THE …, priority 2018, dated 2022)

Legend:
human D4R = human D4R (Homo sapiens (Human), UniProt P21917); assay: Radioligand competition binding, [3H]N-methylspiperone, HEK293 membranes expressing human D4R; settings: Table 1A; μM; read-out: D4R Ki
How it was run: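 HEK293 membranes with human D4R (20 μg protein) and 0.4 nM [3H]N-methylspiperone in EBSS with sodium metabisulfite, 1 h at room temperature, filtration read-out. Compounds 10 μM to 10 pM; nonspecific binding with 10 μM butaclamol. Ki by Cheng-Prusoff from IC50, at least three experiments.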

mice = assay: Basal locomotor activity in mice; format: in vivo

human D4R, sequence (P21917 whole entry): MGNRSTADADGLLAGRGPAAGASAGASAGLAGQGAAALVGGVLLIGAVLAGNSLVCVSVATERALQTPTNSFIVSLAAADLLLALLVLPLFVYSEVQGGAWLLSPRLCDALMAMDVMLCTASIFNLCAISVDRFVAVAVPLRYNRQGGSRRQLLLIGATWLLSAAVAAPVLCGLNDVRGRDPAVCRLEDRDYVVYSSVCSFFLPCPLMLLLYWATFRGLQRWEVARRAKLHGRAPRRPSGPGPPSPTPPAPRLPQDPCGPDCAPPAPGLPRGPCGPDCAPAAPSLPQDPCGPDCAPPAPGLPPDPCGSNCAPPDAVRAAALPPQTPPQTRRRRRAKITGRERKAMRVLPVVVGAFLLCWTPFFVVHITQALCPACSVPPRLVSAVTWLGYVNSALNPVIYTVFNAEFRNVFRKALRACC

For CCc1cc(Cl)c(OC)c(N2CCN(CC(O)CCNC(=O)c3cc4ccccc4[nH]3)CC2)c1 (racemic) [Compound 29, N-(4-(4-(3-chloro-5-ethyl-2-methoxyphenyl)piperazin-1-yl)-3-hydroxybutyl)-1H-indole-2-carboxamide], the Ki (human D4R) was > 100 µM and the basal locomotor activity (mice) was “nether significantly affected”.
